Reference: ChEMBL document CHEMBL5634078, “Catechol-mimicking transition-state analogues as non-oxidizable inhibitors of tyrosinases” (Eur J Med Chem, 2023)
pIC50, pKi: −log10 of the molar value.

Legend:
[1] = Binding affinity to Mushroom Tyrosinase assessed as inhibition constant
[2] = biological target: T1, Mushroom tyrosinase (Agaricus bisporus, UniProt O42713+Q00024+C7FF04+C7FF05); assay: Inhibition of mushroom Tyrosinase; assay type: protein assay
[3] = biological target: T1, Mushroom tyrosinase; assay: Inhibition of mushroom Tyrosinase using L-DOPA as substrate assessed as inhibition constant by Michaelis-Menten analysis; assay type: protein assay
[4] = biological target: T2, Tyrosinase (Homo sapiens, UniProt P14679); assay: Binding affinity to human Tyrosinase assessed as inhibition constant
T2 sequence (P14679 whole entry): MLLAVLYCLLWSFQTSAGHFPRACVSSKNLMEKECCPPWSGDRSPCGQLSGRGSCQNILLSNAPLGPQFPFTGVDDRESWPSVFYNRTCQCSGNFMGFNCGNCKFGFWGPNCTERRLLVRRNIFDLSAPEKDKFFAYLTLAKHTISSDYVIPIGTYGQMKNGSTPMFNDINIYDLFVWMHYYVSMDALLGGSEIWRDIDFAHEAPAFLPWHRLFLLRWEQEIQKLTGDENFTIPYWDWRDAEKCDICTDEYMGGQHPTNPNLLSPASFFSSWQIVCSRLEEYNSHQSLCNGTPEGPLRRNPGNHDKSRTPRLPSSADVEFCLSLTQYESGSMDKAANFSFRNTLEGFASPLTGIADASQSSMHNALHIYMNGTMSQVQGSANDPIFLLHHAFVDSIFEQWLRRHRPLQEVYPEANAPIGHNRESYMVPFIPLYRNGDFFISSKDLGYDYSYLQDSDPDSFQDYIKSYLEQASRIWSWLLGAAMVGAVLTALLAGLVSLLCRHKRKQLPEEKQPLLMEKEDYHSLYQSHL

[5] = Inhibition of Bacterial Tyrosinase; parameters: species or system Bacteria
[6] = biological target: T1, Mushroom tyrosinase; assay: Binding affinity to mushroom Tyrosinase using L-DOPA as substrate assessed as inhibition constant by Michaelis-Menten analysis; assay type: protein assay
[7] = biological target: T1, Mushroom tyrosinase; assay: Inhibition of mushroom Tyrosinase by using L-DOPA as substrate by spectrophotometric assay; assay type: protein assay
[8] = Biniding affinity to bacterial Tyrosinase assessed as inhibition constant; parameters: species or system Bacteria
[9] = biological target: T2, Tyrosinase; assay: Binding affinity to human Tyrosinase using L-DOPA as substrate assessed as inhibition constant by Michaelis-Menten analysis
[10] = biological target: T2, Tyrosinase; assay: Inhibition of human tyrosinase using L-DOPA as substrate by spectrophotometer analysis
[11] = Inhibition of human Tyrosine kinase
[12] = Binding affinity to bacterial Tyrosinase assessed as inhibition constant; parameters: species or system Bacteria
[13] = tested on: Oc1ccccc1; assay: (§1) Binding affinity to mushroom tyrosinase assessed as catalytic constant by Michaelis-Menten analysis; assay type: protein assay; conditions: Agaricus bisporus
[14] = tested on: O=C(O)Cc1ccc(O)cc1; assay: as §1; assay type: protein assay; conditions: Agaricus bisporus
[15] = tested on: NCCc1ccc(O)cc1; assay: as §1; assay type: protein assay; conditions: Agaricus bisporus
[16] = tested on: N[C@H](Cc1ccc(O)cc1)C(=O)O; assay: as §1; assay type: protein assay; conditions: Agaricus bisporus
[17] = tested on: COc1ccc(O)cc1; assay: as §1; assay type: protein assay; conditions: Agaricus bisporus
[18] = tested on: CC(C)(C)c1ccc(O)c(O)c1; assay: (§2) Binding affinity to mushroom tyrosinase assessed as catalytic constant; assay type: protein assay; conditions: Agaricus bisporus
[19] = tested on: Cc1ccc(O)c(O)c1; assay: as §2; assay type: protein assay; conditions: Agaricus bisporus
[20] = tested on: O=c1c(O)c(-c2ccc(O)c(O)c2)oc2cc(O)cc(O)c12; assay: as §2; assay type: protein assay; conditions: Agaricus bisporus
[21] = tested on: O=C(/C=C/c1ccc(O)c(O)c1)O[C@H](Cc1ccc(O)c(O)c1)C(=O)O; assay: as §2; assay type: protein assay; conditions: Agaricus bisporus
[22] = tested on: N[C@H](Cc1ccc(O)c(O)c1)C(=O)O; assay: as §2; assay type: protein assay; conditions: Agaricus bisporus
[23] = tested on: Oc1ccccc1O; assay: as §2; assay type: protein assay; conditions: Agaricus bisporus
[24] = tested on: CC(C)NCC(O)c1ccc(O)c(O)c1; assay: as §2; assay type: protein assay; conditions: Agaricus bisporus
[25] = tested on: N[C@@H](Cc1ccc(O)c(O)c1)C(=O)O; assay: as §2; assay type: protein assay; conditions: Agaricus bisporus
[26] = tested on: O=C(O)Cc1ccc(O)c(O)c1; assay: as §2; assay type: protein assay; conditions: Agaricus bisporus
[27] = tested on: N[C@@H](Cc1ccc(O)cc1)C(=O)O; assay: as §2; assay type: protein assay; conditions: Agaricus bisporus
[28] = tested on: O=C(O)/C=C/c1ccc(O)c(O)c1; assay: as §2; assay type: protein assay; conditions: Agaricus bisporus
[29] = tested on: NCCc1ccc(O)c(O)c1; assay: as §2; assay type: protein assay; conditions: Agaricus bisporus
[30] = tested on: CC(C)(C)c1ccc(O)c(O)c1; assay: (§3) Binding affinity to mushroom tyrosinase […]; assay type: protein assay; conditions: Agaricus bisporus
[31] = tested on: Oc1ccccc1; assay: as §3; assay type: protein assay; conditions: Agaricus bisporus
[32] = tested on: Cc1ccc(O)c(O)c1; assay: as §3; assay type: protein assay; conditions: Agaricus bisporus
[33] = tested on: O=c1c(O)c(-c2ccc(O)c(O)c2)oc2cc(O)cc(O)c12; assay: as §3; assay type: protein assay; conditions: Agaricus bisporus
[34] = tested on: O=C(O)Cc1ccc(O)cc1; assay: as §3; assay type: protein assay; conditions: Agaricus bisporus
[35] = tested on: Oc1ccccc1O; assay: as §3; assay type: protein assay; conditions: Agaricus bisporus
[36] = tested on: NCCc1ccc(O)cc1; assay: as §3; assay type: protein assay; conditions: Agaricus bisporus
[37] = tested on: CC(C)NCC(O)c1ccc(O)c(O)c1; assay: as §3; assay type: protein assay; conditions: Agaricus bisporus
[38] = tested on: N[C@@H](Cc1ccc(O)c(O)c1)C(=O)O; assay: as §3; assay type: protein assay; conditions: Agaricus bisporus
[39] = tested on: OC[C@H]1O[C@@H](Oc2ccc(O)cc2)[C@H](O)[C@@H](O)[C@@H]1O; assay: as §3; assay type: protein assay; conditions: Agaricus bisporus
[40] = tested on: N[C@@H](Cc1ccc(O)cc1)C(=O)O; assay: as §3; assay type: protein assay; conditions: Agaricus bisporus
[41] = tested on: Oc1ccc(OC2CCCCO2)cc1; assay: as §3; assay type: protein assay; conditions: Agaricus bisporus
[42] = tested on: N[C@H](Cc1ccc(O)cc1)C(=O)O; assay: as §3; assay type: protein assay; conditions: Agaricus bisporus
[43] = tested on: NCCc1ccc(O)c(O)c1; assay: as §3; assay type: protein assay; conditions: Agaricus bisporus
[44] = tested on: COc1ccc(O)cc1; assay: as §3; assay type: protein assay; conditions: Agaricus bisporus
[45] = tested on: Oc1ccc(/C=C/c2cc(O)cc(O)c2)cc1; assay: (§4) Binding affinity to mushroom tyrosinase assessed as catalytic constant using L-DOPA as substrate by Michaelis-Menten analysis; assay type: protein assay; conditions: Agaricus bisporus
[46] = tested on: OC[C@H]1O[C@@H](Oc2ccc(O)cc2)[C@H](O)[C@@H](O)[C@@H]1O; assay: as §4; assay type: protein assay; conditions: Agaricus bisporus
[47] = tested on: Oc1ccc(OC2CCCCO2)cc1; assay: as §4; assay type: protein assay; conditions: Agaricus bisporus
[48] = tested on: O=C1/C(=C/c2ccc(O)cc2)Oc2cc(O)ccc21; assay: as §4; assay type: protein assay; conditions: Agaricus bisporus

Chain of Mushroom tyrosinase (Agaricus bisporus) (C7FF05 whole entry, looked up): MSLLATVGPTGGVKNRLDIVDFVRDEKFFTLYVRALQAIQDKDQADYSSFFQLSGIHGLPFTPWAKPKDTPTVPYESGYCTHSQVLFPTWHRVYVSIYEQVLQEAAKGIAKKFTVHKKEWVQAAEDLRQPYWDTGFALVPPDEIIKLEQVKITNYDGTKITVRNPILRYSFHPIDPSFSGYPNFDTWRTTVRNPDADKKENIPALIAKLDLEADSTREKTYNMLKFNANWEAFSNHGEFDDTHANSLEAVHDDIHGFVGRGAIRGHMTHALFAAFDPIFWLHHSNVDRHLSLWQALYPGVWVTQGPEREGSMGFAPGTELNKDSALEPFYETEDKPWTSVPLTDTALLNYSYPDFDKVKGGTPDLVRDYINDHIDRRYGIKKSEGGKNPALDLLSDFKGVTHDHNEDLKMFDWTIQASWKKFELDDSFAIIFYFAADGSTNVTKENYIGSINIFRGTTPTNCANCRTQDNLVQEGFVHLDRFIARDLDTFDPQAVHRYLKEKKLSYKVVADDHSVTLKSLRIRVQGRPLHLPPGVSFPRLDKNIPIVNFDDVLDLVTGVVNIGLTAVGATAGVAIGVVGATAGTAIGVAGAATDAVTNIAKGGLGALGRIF
Chain of Mushroom tyrosinase (Agaricus bisporus) (C7FF04 whole entry, looked up): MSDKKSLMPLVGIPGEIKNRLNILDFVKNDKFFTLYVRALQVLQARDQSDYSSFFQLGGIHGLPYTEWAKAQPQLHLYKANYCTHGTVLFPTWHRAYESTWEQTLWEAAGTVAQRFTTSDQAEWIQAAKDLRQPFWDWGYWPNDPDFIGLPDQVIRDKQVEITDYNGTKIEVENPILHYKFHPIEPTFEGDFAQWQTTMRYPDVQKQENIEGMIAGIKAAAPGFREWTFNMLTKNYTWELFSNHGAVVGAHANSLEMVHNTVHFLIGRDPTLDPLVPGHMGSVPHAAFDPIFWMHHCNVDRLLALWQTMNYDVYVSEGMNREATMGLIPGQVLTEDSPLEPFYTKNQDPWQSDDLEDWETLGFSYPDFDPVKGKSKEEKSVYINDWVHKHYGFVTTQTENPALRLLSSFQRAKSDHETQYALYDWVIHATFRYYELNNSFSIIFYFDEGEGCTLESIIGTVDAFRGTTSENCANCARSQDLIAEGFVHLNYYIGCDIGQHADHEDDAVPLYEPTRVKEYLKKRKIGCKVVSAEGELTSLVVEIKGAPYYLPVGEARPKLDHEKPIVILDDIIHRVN
Chain of Mushroom tyrosinase (Agaricus bisporus) (Q00024 whole entry, looked up): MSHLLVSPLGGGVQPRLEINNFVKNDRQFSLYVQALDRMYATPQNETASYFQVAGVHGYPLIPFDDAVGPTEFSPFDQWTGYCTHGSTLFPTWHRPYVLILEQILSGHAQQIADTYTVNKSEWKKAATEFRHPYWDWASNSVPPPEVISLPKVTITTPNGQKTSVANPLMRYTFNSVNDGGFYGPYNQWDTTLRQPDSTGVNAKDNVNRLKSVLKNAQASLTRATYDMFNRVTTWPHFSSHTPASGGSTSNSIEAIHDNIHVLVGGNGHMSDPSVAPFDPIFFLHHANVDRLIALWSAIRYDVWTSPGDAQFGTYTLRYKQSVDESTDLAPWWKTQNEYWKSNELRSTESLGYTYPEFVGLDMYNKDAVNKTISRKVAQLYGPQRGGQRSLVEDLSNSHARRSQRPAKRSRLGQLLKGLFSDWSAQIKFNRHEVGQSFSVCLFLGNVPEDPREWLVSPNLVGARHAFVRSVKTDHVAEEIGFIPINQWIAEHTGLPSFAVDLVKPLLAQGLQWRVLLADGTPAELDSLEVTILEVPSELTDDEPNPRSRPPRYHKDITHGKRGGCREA
Chain of Mushroom tyrosinase (Agaricus bisporus) (O42713 whole entry, looked up): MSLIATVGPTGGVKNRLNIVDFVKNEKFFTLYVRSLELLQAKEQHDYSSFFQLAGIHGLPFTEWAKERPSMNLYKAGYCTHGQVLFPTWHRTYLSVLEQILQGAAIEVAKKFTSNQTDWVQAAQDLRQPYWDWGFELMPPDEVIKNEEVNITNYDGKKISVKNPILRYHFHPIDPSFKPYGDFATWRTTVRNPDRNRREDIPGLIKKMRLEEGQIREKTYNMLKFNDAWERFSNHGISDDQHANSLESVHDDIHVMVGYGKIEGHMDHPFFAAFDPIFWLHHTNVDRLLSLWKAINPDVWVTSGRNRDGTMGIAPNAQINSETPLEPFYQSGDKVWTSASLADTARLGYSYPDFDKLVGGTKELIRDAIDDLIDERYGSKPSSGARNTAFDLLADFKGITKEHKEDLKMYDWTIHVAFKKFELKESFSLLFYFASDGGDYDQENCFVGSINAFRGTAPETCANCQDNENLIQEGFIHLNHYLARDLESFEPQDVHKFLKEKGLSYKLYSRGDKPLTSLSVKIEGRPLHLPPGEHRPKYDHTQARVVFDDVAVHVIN

NCCn1ccc(=O)c(O)c1
pKi [1]: 4.85

O=c1cc(CSC2CCCCC2)occ1O
IC50 [2]: 0.087 µM

On1ccccc1=S
IC50 [3]: 6.1 µM

NC(=S)N/N=C/c1cc(=O)c(O)co1
pKi [4]: 3.59 | IC50 [2]: 10 µM | pIC50 [5]: 5.80

Cc1c(C)c2c(c(C)c1O)CCC(C)(C(=O)OCc1cc(=O)c(O)co1)O2 (centres undefined)
IC50 [2]: 5.4 µM

O=C(/C=C/c1ccc2c(c1)OCO2)OCc1cc(=O)c(O)co1
IC50 [2]: 1.4 µM

COc1ccc(C(=O)OCc2cc(=O)c(O)co2)cc1
IC50 [2]: 2 µM

Oc1cccnc1O
Ki [6]: 22 µM

O=C(N[C@@H](Cc1ccccc1)C(=O)OCc1cc(=O)c(O)c[nH]1)OCc1ccccc1
IC50 [2]: 9 µM

O=C1/C(=C/c2ccc(=O)n(O)c2)Oc2cccc(O)c21
Ki [6]: 1.02 µM

O=C1/C(=C/c2ccc(=O)n(O)c2)Oc2cc(O)cc(O)c21
Ki [6]: 1.2 µM

O=C1/C(=C/c2ccc(=O)n(O)c2)Oc2cc(O)ccc21
Ki [6]: 0.35 µM | IC50 [3]: 1.5 µM

O=c1cc(CSc2nnc(-c3ccccc3)n2NCc2ccc(O)cc2O)occ1O
IC50 [7]: 1.4 µM

CCCCCCCCn1cc(O)c(=O)cc1COC(=O)[C@@H](N)Cc1ccccc1
IC50 [2]: 4 µM

CCOC(=O)/C=C/c1cc(=O)c(O)co1
IC50 [2]: 36 µM

CCCCCCCCn1cc(O)c(=O)cc1/C=N/OCC
IC50 [2]: 8 µM

O=c1ccc(CO)cn1O
pKi [8]: 5.39

N[C@@H](Cc1ccc(=O)n(O)c1)C(=O)O
pKi [8]: 4.41

O=Cc1ccc(OCc2cc(=O)c(O)co2)cc1F
IC50 [2]: 5.3 µM

CCCCCCCCn1cc(O)c(=O)cc1C=O
IC50 [2]: 7.8 µM

O=c1cc(CSCCCCSCc2cc(=O)c(O)co2)occ1O
IC50 [2]: 3 µM

O=c1oc2ccc(O)cc2cc1O
IC50 [3]: 10 µM

CCCCCCn1cc(O)c(=O)cc1/C=C/c1cc(O)cc(O)c1
IC50 [2]: 16 µM

O=c1cc(CSc2nc3ccccc3c(=O)n2CCc2ccccn2)occ1O
IC50 [7]: 0.46 µM

O=C(CCNC(=O)OCc1cc(=O)c(O)co1)OCc1cc(=O)c(O)co1
IC50 [2]: 7 µM

Nc1cc2ccc(O)cc2oc1=O
IC50 [3]: 53 µM

CCn1ccc(=O)c(O)c1
pKi [1]: 5.40

COc1ccccc1/C=C/C=N/Nc1nnc(SCc2cc(=O)c(O)co2)n1N
IC50 [7]: 7.5 µM

O=c1cc(CSc2nc3ccccc3s2)occ1O
IC50 [7]: > 3 µM

CC(C)[C@@H](NC(=O)[C@@H](N)Cn1ccc(=O)c(O)c1)C(=O)O
IC50 [2]: 10.3 µM

NC(=S)N/N=C\c1ccc(=O)n(O)c1
Ki [6]: 0.56 µM | pKi [8]: 5.70 | pKi [9]: 4.33 | IC50 [3]: 0.56 µM

CN(C)c1ccc(-c2nnc(SCc3cc(=O)c(O)co3)nc2-c2ccc(N(C)C)cc2)cc1
IC50 [7]: 0.34 µM

O=c1cc(CSc2nnc(-c3ccc(F)cc3)o2)occ1O
IC50 [7]: 5.3 µM

CC(C)c1ccccc(=O)c1O [ALPHA-THUJAPLICIN]
Ki [6]: 9.5 µM | pIC50 [10]: < 3.00

Cc1c(O)c(=O)ccn1C [DEFERIPRONE]
IC50 [2]: 30 µM

CC(C)c1ccc(O)c(=O)cc1 [GAMMA-THUJAPLICIN]
Ki [6]: 0.07 µM

CC(C)c1cccc(=O)c(O)c1 [HINOKITIOL]
Ki [6]: 0.09 µM

O=c1cc(CO)occ1O [KOJIC ACID]
pIC50 [11]: 4.51

N[C@@H](Cn1ccc(=O)c(O)c1)C(=O)O [L-MIMOSINE]
pKi [1]: 5.10 | pKi [12]: 4.27

O=c1cccccc1O [TROPOLONE]
Ki [6]: 8 µM

Mushroom tyrosinase (Agaricus bisporus) (from UniProt O42713+Q00024+C7FF04+C7FF05)
kcat [13]: 13 s⁻¹ | kcat [14]: 44 s⁻¹ | kcat [15]: 26 s⁻¹ | kcat [16]: 8.7 s⁻¹ | kcat [17]: 184 s⁻¹ | kcat [18]: 642 s⁻¹ | kcat [19]: 842 s⁻¹ | kcat [20]: 6.2 s⁻¹ | kcat [21]: 68 s⁻¹ | kcat [22]: 108 s⁻¹ | kcat [23]: 874 s⁻¹ | kcat [24]: 29 s⁻¹ | kcat [25]: 107 s⁻¹ | kcat [26]: 632 s⁻¹ | kcat [27]: 7.9 s⁻¹ | kcat [28]: 403 s⁻¹ | kcat [29]: 475 s⁻¹ | Km [30]: 2.8 µM | Km [31]: 0.7 µM | Km [32]: 100 µM | Km [33]: 0.12 µM | Km [34]: 1910 µM | Km [35]: 0.16 µM | Km [36]: 0.51 µM | Km [37]: 7100 µM | Km [38]: 800 µM | Km [39]: 3000 µM | Km [40]: 0.21 µM | Km [41]: 0.033 µM | Km [42]: 2.5 µM | Km [43]: 720 µM | Km [44]: 80 µM | kcat [45]: 69 s⁻¹ | kcat [46]: 3.8 s⁻¹ | kcat [47]: 1.95 s⁻¹ | kcat [48]: 2.3 s⁻¹
